Results taken from patent publication US20120115845A1, “THERAPEUTIC AGENTS” (priority 2007, published 2012).
pEC50, pIC50: −log10 of the molar value.

What was measured:
human GHS receptor [1] = target: T1, human GHS receptor (Homo sapiens, UniProt Q92847); experiment: h bind IC50 (binding assay, Table 1); conditions: human receptor; Table 1
human GHS receptor [2] = target: T1, human GHS receptor; experiment: Ghrelin IP1 agonist assay (IP1 HTRF); type: cell-based; design: expressed in transfected cells; host or cells: HEK293s; conditions: for Emax: 2 h, agonist effect as % maximal effect of GHRP-6 (5 μM), read-out: h IP1 ag %; for pEC50: HEK293s cells stably expressing human GHS receptor, 2 hours at 37° C., read-out: h IP1 ag EC50
Summary of the method: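 Cells: HEK293s stably expressing human GHS receptor, in stimulation buffer containing 0.02% fatty acid free BSA.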

T1 sequence (Q92847 whole entry): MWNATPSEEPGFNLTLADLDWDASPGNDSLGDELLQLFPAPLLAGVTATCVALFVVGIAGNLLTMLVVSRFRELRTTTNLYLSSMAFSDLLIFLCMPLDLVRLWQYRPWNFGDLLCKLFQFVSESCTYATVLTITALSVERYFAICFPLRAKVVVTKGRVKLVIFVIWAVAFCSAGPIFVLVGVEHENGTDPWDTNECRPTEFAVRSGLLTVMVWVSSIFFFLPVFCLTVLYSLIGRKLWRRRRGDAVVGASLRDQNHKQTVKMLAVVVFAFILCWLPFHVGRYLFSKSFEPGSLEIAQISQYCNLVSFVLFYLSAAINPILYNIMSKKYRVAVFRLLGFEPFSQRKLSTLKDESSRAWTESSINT

| SMILES | pIC50 (human GHS receptor [1]) | Emax (human GHS receptor [2]) | pEC50 (human GHS receptor [2]) |
| --- | --- | --- | --- |
| CS(=O)(=O)c1ccc2nc(NC(=O)NC(=O)c3cc(CN4CCCC4)ccc3Cl)sc2c1 [Example 62, 2-Chloro-5-pyrrolidin-1-ylmethyl-N-(6-(methylsulfonyl)benzothiazol-2-ylcarbamoyl)benzamide] | 5.76 | 9.06% | ≤ 4.60 |
| CN(C)CCOc1ccc(Cl)c(C(=O)NC(=O)Nc2nc3ccc(S(C)(=O)=O)cc3s2)c1 [Example 63, 2-Chloro-5-(2-(dimethylamino)ethoxy)-N-(6-(methylsulfonyl)benzothiazol-2-ylcarbamoyl)benzamide] | 5.56 | 31.8% | 7.21 |
| CS(=O)(=O)c1ccc2nc(NC(=O)NC(=O)c3cc(Cl)ccc3Cl)sc2c1 [Example 64, 2,5-Dichloro-N-[(6-methylsulfonylbenzothiazol-2-yl)carbamoyl]benzamide] | 6.86 | 8.74% | 7.72 |
| Cc1ccc(Cl)c(C(=O)NC(=O)Nc2nc3ccc(S(C)(=O)=O)cc3s2)c1 [Example 65, 2-Chloro-5-methyl-N-(6-(methylsulfonyl)benzothiazol-2-ylcarbamoyl)benzamide] | 6.57 | 8.23% | 7.09 |
| CS(=O)(=O)c1ccc2nc(NC(=O)NC(=O)c3cc(-n4cccc4)ccc3Cl)sc2c1 [Example 66, 2-Chloro-N-[(6-methylsulfonylbenzothiazol-2-yl)carbamoyl]-5-pyrrol-1-yl-benzamide] | 7.64 | 0% | ≤ 4.60 |
| CS(=O)(=O)c1ccc2nc(NC(=O)NC(=O)c3cc(-n4cncn4)ccc3Cl)sc2c1 [Example 67, 2-Chloro-N-(6-(methylsulfonyl)benzothiazol-2-ylcarbamoyl)-5-(1H-1,2,4-triazol-1-yl)benzamide] | 6.27 | 0% | < 4.70 |
| CS(=O)(=O)c1ccc2nc(NC(=O)NC(=O)c3cc(-c4cncs4)ccc3Cl)sc2c1 [Example 68, 2-chloro-N-(6-(methylsulfonyl)benzothiazol-2-ylcarbamoyl)-5-(thiazol-5-yl)benzamide] | 7.36 | 0% | < 4.60 |
| CS(=O)(=O)c1ccc2nc(NC(=O)NC(=O)c3cc(-n4ccnc4)ccc3Cl)sc2c1 [Example 69, 2-Chloro-5-(1H-imidazol-1-yl)-N-(6-(methylsulfonyl)benzothiazol-2-ylcarbamoyl)benzamide] | 7.43 | 14.1% | 5.52 |
| CS(=O)(=O)c1ccc2nc(NC(=O)NC(=O)c3cc([N+](=O)[O-])ccc3Cl)sc2c1 [Example 70, 2-Chloro-N-(6-(methylsulfonyl)benzothiazol-2-ylcarbamoyl)-5-nitrobenzamide] | 6.85 | 0.5% | 6.41 |
| CCN(CC)CCCS(=O)(=O)c1ccc2nc(NC(=O)NC(=O)c3cc(-n4cccc4)ccc3Cl)sc2c1 [Example 71, 2-Chloro-N-[[6-(3-diethylaminopropylsulfonyl)benzothiazol-2-yl]carbamoyl]-5-pyrrol-1-yl-benzamide] | 9.40 | 0.0469% | ≤ 4.60 |
| O=C(NC(=O)c1cc(-n2cccc2)ccc1Cl)Nc1nc2ccc(S(=O)(=O)CCCNCC3CC3)cc2s1 [Example 72, 2-Chloro-N-[[6-[3-(cyclopropylmethylamino)propylsulfonyl]benzothiazol-2-yl]carbamoyl]-5-pyrrol-1-yl-benzamide] | 9.52 | 6.6% | 5.22 |
| O=C(NC(=O)c1cc(-n2cccc2)ccc1Cl)Nc1nc2ccc(S(=O)(=O)CCCN3CCNCC3)cc2s1 [Example 73, 2-Chloro-N-[[6-(3-piperazin-1-ylpropylsulfonyl)benzothiazol-2-yl]carbamoyl]-5-pyrrol-1-yl-benzamide] | 8.89 | 2.25% | ≤ 4.60 |
| O=C(NC(=O)c1cc(-n2cccc2)ccc1Cl)Nc1nc2ccc(S(=O)(=O)[C@H]3CCNC3)cc2s1 [Example 77, 2-Chloro-N-[[6-[(3S)-pyrrolidin-3-yl]sulfonylbenzothiazol-2-yl]carbamoyl]-5-pyrrol-1-yl-benzamide] | 8.77 | 0.911% | ≤ 4.60 |
| O=C(NC(=O)c1cc(-n2cccc2)ccc1Cl)Nc1nc2ccc(S(=O)(=O)[C@@H]3CCNC3)cc2s1 [Example 78, 2-Chloro-N-[[6-[(3R)-pyrrolidin-3-yl]sulfonylbenzothiazol-2-yl]carbamoyl]-5-pyrrol-1-yl-benzamide] | 9.10 | 0.81% | 5.37 |
| O=C(NC(=O)c1cc(-n2cccc2)ccc1Cl)Nc1nc2ccc(S(=O)(=O)CCN3CCNCC3)cc2s1 [Example 79, 2-Chloro-N-[[6-(2-piperazin-1-ylethylsulfonyl)benzothiazol-2-yl]carbamoyl]-5-pyrrol-1-yl-benzamide] | 9.22 | 1.95% | ≤ 4.60 |
| COCCNCCS(=O)(=O)c1ccc2nc(NC(=O)NC(=O)c3cc(-n4cccc4)ccc3Cl)sc2c1 [Example 80, 2-Chloro-N-[[6-[2-(2-methoxyethylamino)ethylsulfonyl]benzothiazol-2-yl]carbamoyl]-5-pyrrol-1-yl-benzamide] | 8.66 | 9.77% | ≤ 4.60 |
| CC(C)NCCS(=O)(=O)c1ccc2nc(NC(=O)NC(=O)c3cc(-n4cccc4)ccc3Br)sc2c1 [Example 83, 2-Bromo-N-(6-(2-(isopropylamino)ethylsulfonyl)benzothiazol-2-ylcarbamoyl)-5-(1H-pyrrol-1-yl)benzamide] | 8.89 | 0% | ≤ 4.60 |
| CN1CCN(CCCS(=O)(=O)c2ccc3nc(NC(=O)NC(=O)c4cc(-n5cccc5)ccc4Cl)sc3c2)CC1 [Example 85, 2-Chloro-N-(6-(3-(4-methylpiperazin-1-yl)propylsulfonyl)benzothiazol-2-ylcarbamoyl)-5-(1H-pyrrol-1-yl)benzamide] | 9.70 | 0.18% | ≤ 4.60 |
| CN1CCN(CCCS(=O)(=O)c2ccc3nc(NC(=O)NC(=O)c4cc(-c5ccccn5)ccc4Cl)sc3c2)CC1 [Example 86, 2-Chloro-N-(6-(3-(4-methylpiperazin-1-yl)propylsulfonyl)benzothiazol-2-ylcarbamoyl)-5-(pyridin-2-yl)benzamide] | 9.15 | 0.64% | ≤ 4.60 |
| CN1CCN(CCCS(=O)(=O)c2ccc3nc(NC(=O)NC(=O)c4cc(N5CCCC5)ccc4Cl)sc3c2)CC1 [Example 87, 2-Chloro-N-(6-(3-(4-methylpiperazin-1-yl)propylsulfonyl)benzothiazol-2-ylcarbamoyl)-5-(pyrrolidin-1-yl)benzamide] | 9.70 | 0.631% | 5.18 |
| CN1CCN(CCCS(=O)(=O)c2ccc3nc(NC(=O)NC(=O)c4cc(-n5cccn5)ccc4Cl)sc3c2)CC1 [Example 88, 2-Chloro-N-(6-(3-(4-methylpiperazin-1-yl)propylsulfonyl)benzothiazol-2-ylcarbamoyl)-5-(1H-pyrazol-1-yl)benzamide] | 9.15 | 4.42% | ≤ 4.60 |
| Cc1ccnn1-c1ccc(Cl)c(C(=O)NC(=O)Nc2nc3ccc(S(=O)(=O)CCCN4CCN(C)CC4)cc3s2)c1 [Example 90, 2-Chloro-5-(5-methyl-1H-pyrazol-1-yl)-N-(6-(3-(4-methylpiperazin-1-yl)propylsulfonyl)benzothiazol-2-ylcarbamoyl)benzamide] | 9.15 | 0% | < 4.60 |
